Test results from article PMC7891601 (Clinical Pharmacology and Therapeutics, 2020).
Read-outs that look alike come from different tables or passages of the source. One block for each compound: values may come before it.

How the values were obtained:
[1] = assay type: in vivo, human; conditions: for mean plasma concentration (Cav): mean ± SEM; for CLr / AUC: adjusted geometric mean; for CLr: 0–24 h; for AUC: AUC0–24; for impact of metformin administration on CLr: control vs baseline
[2] = system: MATE2‐K; conditions: read-out: Ki for MATE2‐K‐mediated creatinine uptake; cited from earlier work
[3] = target: T1, OCT2 (Homo sapiens, UniProt O15244); assay type: cell-based; conditions: In vitro Ki of pyrimethamine, HEK293
T1 sequence (O15244 1-555): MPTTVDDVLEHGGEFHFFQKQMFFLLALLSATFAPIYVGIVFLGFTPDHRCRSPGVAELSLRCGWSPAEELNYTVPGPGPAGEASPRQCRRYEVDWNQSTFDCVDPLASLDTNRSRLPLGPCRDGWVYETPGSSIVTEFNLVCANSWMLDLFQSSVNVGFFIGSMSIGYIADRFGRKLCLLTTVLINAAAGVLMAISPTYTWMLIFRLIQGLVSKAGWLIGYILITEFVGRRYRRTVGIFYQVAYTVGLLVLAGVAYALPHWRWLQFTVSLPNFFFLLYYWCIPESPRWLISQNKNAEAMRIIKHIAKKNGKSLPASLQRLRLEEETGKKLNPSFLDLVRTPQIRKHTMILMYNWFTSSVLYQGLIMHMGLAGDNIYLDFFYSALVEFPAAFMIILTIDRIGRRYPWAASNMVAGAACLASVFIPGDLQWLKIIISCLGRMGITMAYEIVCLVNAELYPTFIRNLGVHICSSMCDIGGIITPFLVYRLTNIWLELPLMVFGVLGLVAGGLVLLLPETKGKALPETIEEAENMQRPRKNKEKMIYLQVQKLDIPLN

[4] = target: MATE2‐K (Homo sapiens, UniProt Q86VL8); assay type: cell-based; conditions: In vitro Ki of pyrimethamine, HEK293
[5] = target: T2, MATE1 (Homo sapiens, UniProt Q96FL8); assay type: cell-based; conditions: In vitro Ki of pyrimethamine, 2 min, HEK293
T2 sequence (Q96FL8 1-570): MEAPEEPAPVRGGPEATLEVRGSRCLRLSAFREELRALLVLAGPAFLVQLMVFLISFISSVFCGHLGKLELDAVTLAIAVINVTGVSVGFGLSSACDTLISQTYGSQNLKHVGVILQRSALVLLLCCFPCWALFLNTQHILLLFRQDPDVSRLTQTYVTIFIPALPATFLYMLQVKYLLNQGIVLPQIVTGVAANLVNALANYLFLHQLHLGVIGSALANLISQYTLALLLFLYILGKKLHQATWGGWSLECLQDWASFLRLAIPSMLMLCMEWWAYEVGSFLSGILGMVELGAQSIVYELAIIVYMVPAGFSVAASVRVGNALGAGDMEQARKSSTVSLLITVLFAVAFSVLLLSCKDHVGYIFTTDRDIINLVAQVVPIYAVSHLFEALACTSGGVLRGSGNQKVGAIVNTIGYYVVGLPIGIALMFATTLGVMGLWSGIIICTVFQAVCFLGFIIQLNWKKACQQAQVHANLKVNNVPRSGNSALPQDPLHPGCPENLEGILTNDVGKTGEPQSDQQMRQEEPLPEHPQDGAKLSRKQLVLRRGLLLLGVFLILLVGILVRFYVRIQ

[6] = target: T3, SLC29A1/equilibrative nucleoside transporter 1 (Homo sapiens, UniProt Q99808); test: Uptake of m1A in HEK293 cells with and without inhibitors; assay type: cell-based; conditions: m1A 100 μM, HEK293, 15 min, inhibitor 10 μM
T3 sequence (Q99808 2-456): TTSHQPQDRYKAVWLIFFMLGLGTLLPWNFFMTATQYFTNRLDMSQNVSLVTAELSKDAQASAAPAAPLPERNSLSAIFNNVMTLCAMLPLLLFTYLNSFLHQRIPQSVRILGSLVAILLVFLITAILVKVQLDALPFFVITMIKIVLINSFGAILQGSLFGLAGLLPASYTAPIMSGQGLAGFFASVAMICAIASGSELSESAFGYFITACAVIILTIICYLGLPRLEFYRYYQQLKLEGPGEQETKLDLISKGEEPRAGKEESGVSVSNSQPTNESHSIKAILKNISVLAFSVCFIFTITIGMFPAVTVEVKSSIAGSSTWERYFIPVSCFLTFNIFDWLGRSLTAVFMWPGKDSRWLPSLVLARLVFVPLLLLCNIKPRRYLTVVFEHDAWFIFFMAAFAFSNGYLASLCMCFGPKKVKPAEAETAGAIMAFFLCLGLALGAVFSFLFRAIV

[7] = system: OAT2; conditions: read-out: half‐maximal inhibitory concentration, OAT2; cited from earlier work
[8] = in humans; cited from earlier work
[9] = system: MATE1; conditions: read-out: Ki for MATE1‐mediated creatinine uptake; cited from earlier work
[10] = target: T4, OAT3 (Homo sapiens, UniProt Q8TCC7); test: Inhibition of ES uptake in OAT3-expressing HEK293 cells; assay type: cell-based
T4 sequence (Q8TCC7 1-542): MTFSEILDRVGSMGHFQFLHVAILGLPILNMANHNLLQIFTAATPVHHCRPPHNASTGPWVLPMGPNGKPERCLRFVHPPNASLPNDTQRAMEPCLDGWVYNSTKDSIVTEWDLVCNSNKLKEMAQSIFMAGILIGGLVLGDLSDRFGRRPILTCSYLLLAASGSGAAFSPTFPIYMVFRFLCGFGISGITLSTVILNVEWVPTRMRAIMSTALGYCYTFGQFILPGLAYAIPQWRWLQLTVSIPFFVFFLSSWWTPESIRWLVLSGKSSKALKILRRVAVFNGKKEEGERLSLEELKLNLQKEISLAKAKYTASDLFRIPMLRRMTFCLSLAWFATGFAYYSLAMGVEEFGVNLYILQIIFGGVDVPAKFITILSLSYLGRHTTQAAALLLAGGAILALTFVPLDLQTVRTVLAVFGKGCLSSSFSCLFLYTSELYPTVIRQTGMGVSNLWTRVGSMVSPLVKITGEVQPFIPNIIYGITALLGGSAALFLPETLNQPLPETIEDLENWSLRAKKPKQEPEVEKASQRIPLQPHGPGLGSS

[11] = target: T5, OAT1 (Homo sapiens, UniProt Q4U2R8); test: Inhibition of PAH uptake in OAT1-expressing HEK293 cells; assay type: cell-based
T5 sequence (Q4U2R8 1-563): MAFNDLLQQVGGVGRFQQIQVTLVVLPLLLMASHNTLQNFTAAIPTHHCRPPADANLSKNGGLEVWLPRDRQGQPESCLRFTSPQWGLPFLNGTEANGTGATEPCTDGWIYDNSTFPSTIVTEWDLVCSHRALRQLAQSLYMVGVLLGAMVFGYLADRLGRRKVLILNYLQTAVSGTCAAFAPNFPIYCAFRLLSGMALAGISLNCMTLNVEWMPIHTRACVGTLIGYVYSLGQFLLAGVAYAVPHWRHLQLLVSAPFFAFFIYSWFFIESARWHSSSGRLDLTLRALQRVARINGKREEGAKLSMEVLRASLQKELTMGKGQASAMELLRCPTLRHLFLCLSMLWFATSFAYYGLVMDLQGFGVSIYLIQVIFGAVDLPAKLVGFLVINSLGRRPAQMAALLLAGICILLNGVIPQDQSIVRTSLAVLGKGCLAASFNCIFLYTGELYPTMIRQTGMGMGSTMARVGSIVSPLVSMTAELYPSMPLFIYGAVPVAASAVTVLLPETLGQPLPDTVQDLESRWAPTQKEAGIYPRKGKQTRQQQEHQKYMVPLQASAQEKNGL

[12] = system: MATE1/2‐K; test: Nonlinear regression of CLr ratio vs pyrimethamine plasma concentration; assay type: in vivo, human; conditions: regression against pyrimethamine Cav
[13] = control phase (metformin 500 mg alone)
[14] = pyrimethamine 10 mg + metformin
[15] = pyrimethamine 25 mg + metformin
[16] = pyrimethamine 75 mg + metformin

Chain of MATE2‐K (Homo sapiens, UniProt Q86VL8) (Q86VL8 1-566 isoform Q86VL8-3): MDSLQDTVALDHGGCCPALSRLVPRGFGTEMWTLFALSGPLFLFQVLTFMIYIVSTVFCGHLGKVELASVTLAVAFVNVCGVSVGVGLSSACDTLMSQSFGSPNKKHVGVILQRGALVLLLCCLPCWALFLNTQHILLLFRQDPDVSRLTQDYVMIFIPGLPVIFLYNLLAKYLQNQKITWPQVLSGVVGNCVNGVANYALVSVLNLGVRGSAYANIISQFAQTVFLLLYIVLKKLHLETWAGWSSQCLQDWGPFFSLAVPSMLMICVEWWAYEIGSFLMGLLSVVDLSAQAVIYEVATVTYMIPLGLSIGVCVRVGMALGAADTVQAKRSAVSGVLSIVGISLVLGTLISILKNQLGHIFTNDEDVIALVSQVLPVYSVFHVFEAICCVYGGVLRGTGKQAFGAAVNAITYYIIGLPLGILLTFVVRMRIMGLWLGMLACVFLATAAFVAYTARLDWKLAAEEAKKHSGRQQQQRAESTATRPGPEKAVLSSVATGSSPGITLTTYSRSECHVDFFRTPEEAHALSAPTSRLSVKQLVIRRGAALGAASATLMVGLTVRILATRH

mean plasma concentration (Cav) ([1]; 10 mg single oral dose): 0.287 ± 0.024 µM | mean plasma concentration (Cav) ([1]; 25 mg single oral dose): 0.781 ± 0.031 µM | mean plasma concentration (Cav) ([1]; 75 mg single oral dose): 2.47 ± 0.18 µM | Ki ([3]; OCT2, substrate 1‐NMN 10 μM, 2 min): 41.2 ± 9.1 µM | Ki ([3]; OCT2, substrate m1A 100 μM, 30 min): 0.466 ± 0.043 µM | Ki ([3]; OCT2, substrate metformin 10 μM, 2 min): 37.9 ± 5.6 µM | Ki ([4]; substrate 1‐NMN 10 μM, 2 min): 82.1 ± 18 nM | Ki ([4]; substrate m1A 100 μM, 30 min): 68 ± 15 nM | Ki ([4]; substrate metformin 10 μM, 2 min): 94.1 ± 16 nM | Ki ([5]; MATE1, substrate 1‐NMN 10 μM): 125 ± 26 nM | Ki ([5]; MATE1, substrate metformin 10 μM): 154 ± 29 nM | effect of inhibitor on uptake of m1A (ENT1) [6]: minimal | IC50 [10]: 9.69 ± 2.27 µM | IC50 [11]: 241 ± 55 µM
SMILES: CCc1nc(N)nc(N)c1-c1ccc(Cl)cc1 [pyrimethamine]
Ki [2]: 220 nM | IC50 [7]: > 100 µM | elimination half‐life [8]: ca. 100 hours | Ki [9]: 170 nM

CLr [1, 13]: 545.1 mL/min | AUC [1, 13]: 291.2 nM·h | CLr [1, 14]: 584.6 mL/min | AUC [1, 14]: 214.2 nM·h | CLr [1, 15]: 603.1 mL/min | AUC [1, 15]: 177.2 nM·h | CLr [1, 16]: 423.7 mL/min | AUC [1, 16]: 164.7 nM·h | decrease in CLr by pyrimethamine ([1]; pyrimethamine 75 mg vs control): 22%
SMILES: Cc1ncc(CO)c(C(=O)O)c1O [PDA, pyridoxic acid]

decrease in CLr by pyrimethamine ([1]; pyrimethamine 10 mg vs control): 12% | decrease in CLr by pyrimethamine ([1]; pyrimethamine 25 mg vs control): 34% | increase in AUC by pyrimethamine ([1]; pyrimethamine 25 mg vs control): 24% | AUC [1, 16]: 122900 nM·h | decrease in CLr by pyrimethamine ([1]; pyrimethamine 75 mg vs control): 55% | increase in AUC by pyrimethamine ([1]; pyrimethamine 75 mg vs control): 69%
SMILES: CN(C)C(=N)N=C(N)N [Metformin, metformin]

impact of metformin administration on CLr [1]: < 7% | f PYR (contribution of tubular secretion to urinary excretion) [12]: 26%
SMILES: CN1CC(=O)NC1=N [Creatinine, creatinine]

contribution of the tubular secretion ([1]; assumed from CLr vs creatinine clearance at 75 mg): 41% | CLr relative to creatinine clearance ([1]; control conditions, vs corresponding creatinine clearance): 1.3 fold | impact of metformin administration on CLr [1]: < 7%
SMILES: Cn1cnc2c(ncn2[C@@H]2O[C@H](CO)[C@@H](O)[C@H]2O)c1=N [m^1A, N ^1‐methyladenosine]
